This note sets out measurements from patent US20240408085A1, “COMPOUND FOR DEGRADATION OF BCL-2 FAMILY PROTEINS AND MEDICAL APPLICATION THEREOF” (XIZANG HAISCO PHARMACEUTICAL CO., LTD., priority 2021, published 2024).

pIC50: −log10 of the molar value.

The assay concerns MOLT-4 cells. In words: Cell proliferation activity in MOLT-4 cells (72 h, cell viability luminescence). It is filed as cell-based, human. The following applies: Homo sapiens, read-out: IC50 for the inhibition of MOLT-4 cell proliferation. The method, boiled down: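 Human acute lymphoblastic leukemia cells were seeded at 5×10^3 cells/well in RPMI-1640 with 10% FBS. They were treated with serially varied compound concentrations for 72 h at 37° C., 5% CO2. A luminescent viability reagent was used for read-out. IC50 was derived relative to vehicle control; maximum inhibition was the inhibition rate at the highest concentration.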
Turning to `Cc1ncsc1-c1ccc([C@H](C)NC(=O)[C@@H]2C[C@@H](O)CN2C(=O)[C@@H](NC(=O)CCCCCC(=O)N2C[C@@H]3C[C@H]2CN3CC[C@H](CSc2ccccc2)Nc2ccc(S(=O)(=O)NC(=O)c3ccc(N4CCN(CC5=C(c6ccc(Cl)cc6F)CCC6(CC6)C5)CC4)cc3)cc2S(=O)(=O)C(F)(F)F)C(C)(C)C)cc1` [Compound 29, (2S,4R)-1-((S)-2-(7-((1S,4S)-5-((R)-3-((4-(N-(4-(4-((6-(4-chloro-2-fluorophenyl)spiro[2.5]oct-5-en-5-yl)methyl)piperazin-1-yl)benzoyl)sulfamoyl)-2-((trifluoromethyl)sulfonyl)phenyl)amino)-4-(phenylthio)butyl)-2,5-diazabicyclo[2.2.1]heptan-2-yl)-7-oxoheptanamido)-3,3-dimethylbutanoyl)-4-hydroxy-N—((S)-1-(4-(4-methylthiazol-5-yl)phenyl)ethyl)pyrrolidine-2-carboxamide], the pIC50 is more than 6.30. As for `Cc1ncsc1-c1ccc([C@H](C)NC(=O)[C@@H]2C[C@@H](O)CN2C(=O)[C@@H](NC(=O)CCCCCC(=O)N2C[C@@H]3C[C@H]2CN3CC[C@H](CSc2ccccc2)Nc2ccc(S(=O)(=O)NC(=O)c3ccc(N4CCN(CC5=C(c6ccc(Cl)cc6F)CCC(C)(C)C5)CC4)cc3)cc2S(=O)(=O)C(F)(F)F)C(C)(C)C)cc1` [Compound 20, (2S,4R)-1-((S)-2-(7-((1S,4S)-5-((R)-3-((4-(N-(4-(4-((4′-chloro-2′-fluoro-4,4-dimethyl-3,4,5,6-tetrahydro-[1,1′-biphenyl]-2-yl)methyl)piperazin-1-yl)benzoyl)sulfamoyl)-2-((trifluoromethyl)sulfonyl)phenyl)amino)-4-(phenylthio)butyl)-2,5-diazabicyclo[2.2.1]heptan-2-yl)-7-oxoheptanamido)-3,3-dimethylbutanoyl)-4-hydroxy-N—((S)-1-(4-(4-methylthiazol-5-yl)phenyl)ethyl)pyrrolidine-2-carboxamide], the pIC50 was more than 6.30. In the case of `Cc1ncsc1-c1ccc([C@H](C)NC(=O)[C@@H]2C[C@@H](O)CN2C(=O)[C@@H](NC(=O)CCCCCC(=O)N2CCN(CC[C@H](CSc3ccccc3)Nc3ccc(S(=O)(=O)NC(=O)c4ccc(N5CCN(CC6=C(c7ccc(Cl)cc7F)CCC7(CC7)C6)CC5)cc4)cc3S(=O)(=O)C(F)(F)F)CC2)C(C)(C)C)cc1` [Compound 31, (2S,4R)-1-((S)-2-(7-(4-((R)-3-((4-(N-(4-(4-((6-(4-chloro-2-fluorophenyl)spiro[2.5]oct-5-en-5-yl)methyl)piperazin-1-yl)benzoyl)sulfamoyl)-2-((trifluoromethyl)sulfonyl)phenyl)amino)-4-(phenylthio)butyl)piperazin-1-yl)-7-oxoheptanamido)-3,3-dimethylbutanoyl)-4-hydroxy-N—((S)-1-(4-(4-methylthiazol-5-yl)phenyl)ethyl)pyrrolidine-2-carboxamide], the pIC50 was more than 6.30. As to `Cc1ncsc1-c1ccc([C@H](C)NC(=O)[C@@H]2C[C@@H](O)CN2C(=O)[C@@H](NC(=O)CCCCCC(=O)N2C[C@@H]3C[C@H]2CN3CC[C@H](CSc2ccccc2)Nc2ccc(S(=O)(=O)NC(=O)c3ccc(N4CCN(CC5=C(c6ccc(Cl)cc6)CCCCC5)CC4)cc3)cc2S(=O)(=O)C(F)(F)F)C(C)(C)C)cc1` [Compound 33, (2S,4R)-1-((S)-2-(7-((1S,4S)-5-((R)-3-((4-(N-(4-(4-((2-(4-chlorophenyl)cyclohept-1-en-1-yl)methyl)piperazin-1-yl)benzoyl)sulfamoyl)-2-((trifluoromethyl)sulfonyl)phenyl)amino)-4-(phenylthio)butyl)-2,5-diazabicyclo[2.2.1]heptan-2-yl)-7-oxoheptanamido)-3,3-dimethylbutanoyl)-4-hydroxy-N—((S)-1-(4-(4-methylthiazol-5-yl)phenyl)ethyl)pyrrolidine-2-carboxamide], the pIC50 is more than 6.30. The figure for `Cc1ncsc1-c1ccc([C@H](C)NC(=O)[C@@H]2C[C@@H](O)CN2C(=O)[C@@H](NC(=O)CCCCCC(=O)N2C[C@H]3CN(CC[C@H](CSc4ccccc4)Nc4ccc(S(=O)(=O)NC(=O)c5ccc(N6CCN(CC7=C(c8ccc(Cl)cc8)CCCCC7)CC6)cc5)cc4S(=O)(=O)C(F)(F)F)C[C@H]3C2)C(C)(C)C)cc1` [Compound 41, cis-(2S,4R)-1-((S)-2-(7-(5-((R)-3-((4-(N-(4-(4-((2-(4-chlorophenyl)cyclohept-1-en-1-yl)methyl)piperazin-1-yl)benzoyl)sulfamoyl)-2-((trifluoromethyl)sulfonyl)phenyl)amino)-4-(phenylthio)butyl)hexahydropyrrolo[3,4-c]pyrrol-2(1H)-yl)-7-oxoheptanamido)-3,3-dimethylbutanoyl)-4-hydroxy-N—((S)-1-(4-(4-methylthiazol-5-yl)phenyl)ethyl)pyrrolidine-2-carboxamide] is more than 6.30; for `Cc1ncsc1-c1ccc([C@H](C)NC(=O)[C@@H]2C[C@@H](O)CN2C(=O)[C@@H](NC(=O)CCCCCC(=O)N2CCN(CC[C@H](CSc3ccccc3)Nc3ccc(S(=O)(=O)NC(=O)c4ccc(N5CCN(CC6=C(c7ccc(C#N)cc7)CCC(C)(C)C6)CC5)cc4)cc3S(=O)(=O)C(F)(F)F)CC2)C(C)(C)C)cc1` [Trifluoroacetate of compound 4, (2S,4R)-1-((S)-2-(7-(4-((R)-3-((4-(N-(4-(4-((4′-cyano-4,4-dimethyl-3,4,5,6-tetrahydro-[1,1′-biphenyl]-2-yl)methyl)piperazin-1-yl)benzoyl)sulfamoyl)-2-((trifluoromethyl)sulfonyl)phenyl)amino)-4-(phenylthio)butyl)piperazin-1-yl)-7-oxoheptanamido)-3,3-dimethylbutanoyl)-4-hydroxy-N—((S)-1-(4-(4-methylthiazol-5-yl)phenyl)ethyl)pyrrolidine-2-carboxamide] it is more than 6.30. Take `Cc1ncsc1-c1ccc([C@H](C)NC(=O)[C@@H]2C[C@@H](O)CN2C(=O)[C@@H](NC(=O)CCCCCC(=O)N2CC3CC2CN3CC[C@H](CSc2ccccc2)Nc2ccc(S(=O)(=O)NC(=O)c3ccc(N4CCN(CC5=C(c6ccc(Cl)cc6)CCC(C)(C)C5)CC4)cc3)cc2S(=O)(=O)C(F)(F)F)C(C)(C)C)cc1` (stereo partly drawn) [Compound 2, (2S,4R)-1-((2S)-2-(7-(5-((R)-3-((4-(N-(4-(4-((4′-chloro-4,4-dimethyl-3,4,5,6-tetrahydro-[1,1′-biphenyl]-2-yl)methyl)piperazin-1-yl)benzoyl)sulfamoyl)-2-((trifluoromethyl)sulfonyl)phenyl)amino)-4-(phenylthio)butyl)-2,5-diazabicyclo[2.2.1]heptan-2-yl)-7-oxoheptanamido)-3,3-dimethylbutanoyl)-4-hydroxy-N—((S)-1-(4-(4-methylthiazol-5-yl)phenyl)ethyl)pyrrolidine-2-carboxamide]: the pIC50 is more than 6.30. As for `Cc1ncsc1-c1ccc([C@H](C)NC(=O)[C@@H]2C[C@@H](O)CN2C(=O)[C@@H](NC(=O)CCCCCC(=O)N2CCN(CC[C@H](CSc3ccccc3)Nc3ccc(S(=O)(=O)NC(=O)c4ccc(N5CCN(C/C6=C(\c7ccc(Cl)cc7)CCCCCC6)CC5)cc4)cc3S(=O)(=O)C(F)(F)F)CC2)C(C)(C)C)cc1` [Compound 43, (2S,4R)-1-((S)-2-(7-(4-((R)-3-((4-(N-(4-(4-((2-(4-chlorophenyl)cyclooct-1-en-1-yl)methyl)piperazin-1-yl)benzoyl)sulfamoyl)-2-((trifluoromethyl)sulfonyl)phenyl)amino)-4-(phenylthio)butyl)piperazin-1-yl)-7-oxoheptanamido)-3,3-dimethylbutanoyl)-4-hydroxy-N—((S)-1-(4-(4-methylthiazol-5-yl)phenyl)ethyl)pyrrolidine-2-carboxamide], the pIC50 was more than 6.30.

For `Cc1ncsc1-c1ccc([C@H](C)NC(=O)[C@@H]2C[C@@H](O)CN2C(=O)[C@@H](NC(=O)CCCCCC(=O)N2C[C@H]3CN(CC[C@H](CSc4ccccc4)Nc4ccc(S(=O)(=O)NC(=O)c5ccc(N6CCN(CC7=C(c8ccc(Cl)cc8)CCC8(CC8)C7)CC6)cc5)cc4S(=O)(=O)C(F)(F)F)C[C@H]3C2)C(C)(C)C)cc1` [Compound 18, cis-(2S,4R)-1-((S)-2-(7-(5-((R)-3-((4-(N-(4-(4-((6-(4-chlorophenyl)spiro[2.5]oct-5-en-5-yl)methyl)piperazin-1-yl)benzoyl)sulfamoyl)-2-((trifluoromethyl)sulfonyl)phenyl)amino)-4-(phenylthio)butyl)hexahydropyrrolo[3,4-c]pyrrol-2(1H)-yl)-7-oxoheptanamido)-3,3-dimethylbutanoyl)-4-hydroxy-N—((S)-1-(4-(4-methylthiazol-5-yl)phenyl)ethyl)pyrrolidine-2-carboxamide], the pIC50 is more than 6.30. For `Cc1ncsc1-c1ccc([C@H](C)NC(=O)[C@@H]2C[C@@H](O)CN2C(=O)[C@@H](NC(=O)CCCCCCC(=O)N2C[C@H]3CN(CC[C@H](CSc4ccccc4)Nc4ccc(S(=O)(=O)NC(=O)c5ccc(N6CCN(CC7=C(c8ccc(Cl)cc8)CCC(C)(C)C7)CC6)cc5)cc4S(=O)(=O)C(F)(F)F)C[C@H]3C2)C(C)(C)C)cc1` [Compound 17, cis-(2S,4R)-1-((S)-2-(8-(5-((R)-3-((4-(N-(4-(4-((4′-chloro-4,4-dimethyl-3,4,5,6-tetrahydro-[1,1′-biphenyl]-2-yl)methyl)piperazin-1-yl)benzoyl)sulfamoyl)-2-((trifluoromethyl)sulfonyl)phenyl)amino)-4-(phenylthio)butyl)hexahydropyrrolo[3,4-c]pyrrol-2(1H)-yl)-8-oxooctanamido)-3,3-dimethylbutanoyl)-4-hydroxy-N—((S)-1-(4-(4-methylthiazol-5-yl)phenyl)ethyl)pyrrolidine-2-carboxamide], the pIC50 is more than 6.30.
